In US20240199605A1, “SMALL MOLECULAR INHIBITORS OF NF-kB INDUCING KINASE” (Janssen Pharmaceutica NV, priority 2019, published 2024) one finds IC50 data, which are given here for 16 compounds.

Assay [1] concerns p-IKKα levels in L363 (NIK translocated multiple myeloma) cells. As to the kind of experiment: Effect of compounds on p-IKKα levels in L363 cells (AlphaLISA SureFire Ultra). The note with it: Homo sapiens, L-363, 6 h, BAFF stimulated, MG132, 6 h, average of values, read-out: Assay 2 IC50. It is filed as cell-based, human. The method, boiled down: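 Inhibition of p-IKKα (Ser176/180) read by AlphaLISA after 6 h, 37 °C compound exposure (11-point 1:3 series, 0.3% DMSO) of L363 cells pre-incubated overnight ± 250 ng/ml BAFF and plated ± BAFF ± 10 μM MG132. Normalised to BAFF/MG132/DMSO and unstimulated controls; IC50 by sigmoidal fitting, duplicates.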
(In general: In Alpha technology, singlet oxygen from a donor bead excites a nearby acceptor bead.)

Assay [2] concerns the target recombinant human NF-kappaB-inducing kinase (NIK/MAP3K14) (Homo sapiens (Human), UniProt Q99558). As to the kind of experiment: Inhibition of auto-phosphorylation of recombinant human NIK/MAP3K14 (AlphaScreen). It is filed as biochemical. The note with it: NIK auto-phosphorylation, 5 μM ATP, 1 nM NIK, 2 h at 25° C.; average of values. The method, boiled down:
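GST-tagged NIK (1 nM) auto-phosphorylated with 5 μM ATP for 2 h at 25° C. in 50 mM Tris pH 7.5, 5 mM MgCl2, 1 mM EGTA, 1 mM DTT, 0.1 mM Na3VO4, 0.01% Tween 20 (0.7% DMSO). Detected by AlphaScreen via anti-phospho-IKK Ser176/180 antibody; IC50 from sigmoidal fit of % inhibition versus log concentration.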

Sequence of recombinant human NF-kappaB-inducing kinase (NIK/MAP3K14) (Q99558 whole entry): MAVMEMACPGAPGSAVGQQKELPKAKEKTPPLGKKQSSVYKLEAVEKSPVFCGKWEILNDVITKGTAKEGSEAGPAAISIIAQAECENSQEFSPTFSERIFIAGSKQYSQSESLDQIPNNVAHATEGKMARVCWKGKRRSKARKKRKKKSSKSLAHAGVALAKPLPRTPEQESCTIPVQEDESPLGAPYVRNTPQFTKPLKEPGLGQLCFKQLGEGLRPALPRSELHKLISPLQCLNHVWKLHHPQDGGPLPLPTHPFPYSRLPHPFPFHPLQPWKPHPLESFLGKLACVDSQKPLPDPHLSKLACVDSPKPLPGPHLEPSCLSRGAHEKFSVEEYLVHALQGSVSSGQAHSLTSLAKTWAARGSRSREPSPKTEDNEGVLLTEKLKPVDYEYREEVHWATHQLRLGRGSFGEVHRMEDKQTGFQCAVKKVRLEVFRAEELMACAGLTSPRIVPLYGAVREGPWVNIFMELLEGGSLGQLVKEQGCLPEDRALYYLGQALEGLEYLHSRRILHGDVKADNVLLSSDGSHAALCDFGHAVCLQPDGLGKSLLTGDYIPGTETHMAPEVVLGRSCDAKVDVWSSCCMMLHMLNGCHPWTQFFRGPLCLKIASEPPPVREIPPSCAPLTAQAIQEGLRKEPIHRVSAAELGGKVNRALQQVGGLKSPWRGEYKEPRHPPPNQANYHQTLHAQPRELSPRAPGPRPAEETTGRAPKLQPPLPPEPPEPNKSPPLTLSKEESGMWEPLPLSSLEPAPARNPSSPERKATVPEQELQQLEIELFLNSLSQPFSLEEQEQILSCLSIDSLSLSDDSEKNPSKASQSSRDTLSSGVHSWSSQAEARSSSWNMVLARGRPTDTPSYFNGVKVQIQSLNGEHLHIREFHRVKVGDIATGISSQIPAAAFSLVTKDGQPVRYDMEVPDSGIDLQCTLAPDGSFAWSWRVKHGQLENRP

On to `[2H]C([2H])([2H])N1CCC(O)(C#Cc2cccc(-c3ncc4ccnc(N)c4n3)c2)C1=O` (stereo in doubt) [Example 66, (R)-3-[2-[3-(8-Aminopyrido[3,4-d]pyrimidin-2-yl)phenyl]ethynyl]-3-hydroxy-1-(trideuteriomethyl)pyrrolidin-2-one], for which the IC50 in assay [1] was 4.5 nM; in assay [2], no more than 0.5 nM.

As to `CN1CC[C@](O)(C#Cc2cccc(-c3ncc4ccnc(N)c4n3)c2)C1=O` [Example 2, (S)-3-[2-[3-(8-Aminopyrido[3,4-d]pyrimidin-2-yl)phenyl]ethynyl]-3-hydroxy-1-methyl-pyrrolidin-2-one], the IC50 in assay [1] is greater than 5000 nM; in assay [2], 160 nM.

As to `Cc1nc(N)c2nc(-c3cccc(C#C[C@]4(O)CCN(C)C4=O)c3)nc(C)c2n1` [Example 156, (R)-3-((3-(8-Amino-4,6-dimethylpyrimido[5,4-d]pyrimidin-2-yl)phenyl)ethynyl)-3-hydroxy-1-methylpyrrolidin-2-one], the IC50 in assay [1] is 16 nM; in assay [2], 1.1 nM.

For `C[C@@](O)(C#Cc1cccc(-c2ncc3ccnc(N)c3n2)c1)c1nccs1` [Example 32, (R)-4-[3-(8-Aminopyrido[3,4-d]pyrimidin-2-yl)phenyl]-2-thiazol-2-yl-but-3-yn-2-ol], the IC50 was 12 nM in assay [1] and no more than 0.5 nM in assay [2].

Regarding `Cc1nc(-c2cccc(C#C[C@]3(O)CCN(C)C3=O)c2)nc2c(N)ncnc12` [Example 4, (R)-3-((3-(8-Amino-4-methylpyrimido[5,4-d]pyrimidin-2-yl)phenyl)ethynyl)-3-hydroxy-1-methylpyrrolidin-2-one], the results for the IC50 in assay [1] and in assay [2] were 5.4 nM and 0.8 nM, respectively.

In the case of `[2H]c1nc(N)c2nc(-c3cc(C#C[C@]4(O)CCN(C)C4=O)ccc3OC(F)(F)F)ccc2n1` [Example 29, (R)-3-((3-(4-aminopyrido[3,2-d]pyrimidin-6-yl-2-d)-4-(trifluoromethoxy)phenyl)ethynyl)-3-hydroxy-1-methylpyrrolidin-2-one], the IC50 in assay [1] amounted to 45 nM; in assay [2], 4.1 nM.

For the compound `COc1ccc(C#C[C@]2(O)CCN(C)C2=O)cc1-c1ccc2nc(C)nc(N)c2n1` [Example 161, (R)-3-((3-(4-Amino-2-methylpyrido[3,2-d]pyrimidin-6-yl)-4-methoxyphenyl)ethynyl)-3-hydroxy-1-methylpyrrolidin-2-one], the IC50 in assay [1] worked out at 78 nM; in assay [2], 7 nM.

As to `COc1ccc(C#C[C@]2(O)CCN(C)C2=O)cc1-c1ccc2ncnc(N)c2n1` [Example 139, (R)-3-((3-(4-Aminopyrido[3,2-d]pyrimidin-6-yl)-4-methoxyphenyl)ethynyl)-3-hydroxy-1-methylpyrrolidin-2-one], the IC50 was found to be 22 nM in assay [1] and 2.9 nM in assay [2].

Consider `Cc1nc(N)c2nc(-c3cc(C#C[C@]4(O)CCN(C)C4=O)ccc3C)ccc2n1` [Example 150, (R)-3-((3-(4-Amino-2-methylpyrido[3,2-d]pyrimidin-6-yl)-4-methylphenyl)ethynyl)-3-hydroxy-1-methylpyrrolidin-2-one], for which the IC50 in assay [1] worked out at 320 nM; in assay [2], 4.7 nM.

With `CNC(=O)C1CN(c2ncnc3ccc(-c4cccc(C#C[C@]5(O)CCN(C)C5=O)c4)nc23)C1` [Example 246, (R)-1-(6-(3-((3-Hydroxy-1-methyl-2-oxopyrrolidin-3-yl)ethynyl)phenyl)pyrido[3,2-d]pyrimidin-4-yl)-N-methylazetidine-3-carboxamide], the values for the IC50 in assay [1] and in assay [2] were 3790 nM and 23 nM, respectively.

For the compound `CN1CC[C@@](O)(C#Cc2ccc(OC(F)(F)F)c(-c3ncc4ccnc(N)c4n3)c2)C1=O` [Example 56, (R)-3-((3-(8-Aminopyrido[3,4-d]pyrimidin-2-yl)-4-(trifluoromethoxy)phenyl)ethynyl)-3-hydroxy-1-methylpyrrolidin-2-one], the IC50 was 36 nM in assay [1] and 2 nM in assay [2].

Consider `[2H]C([2H])([2H])N1CC[C@@](O)(C#Cc2cccc(-c3nc(C)c4ccnc(N)c4n3)c2)C1=O` [Example 83, (R)-3-((3-(8-Amino-4-methylpyrido[3,4-d]pyrimidin-2-yl)phenyl)ethynyl)-3-hydroxy-1-(methyl-da)pyrrolidin-2-one], for which the IC50 in assay [1] was 3.2 nM; in assay [2] it was no more than 0.5 nM.

With `CN1CC[C@@](O)(C#Cc2cccc(-c3ccc4ncnc(NC5COC5)c4n3)c2)C1=O` [Example 229, (R)-3-Hydroxy-1-methyl-3-((3-(4-(oxetan-3-ylamino)pyrido[3,2-d]pyrimidin-6-yl)phenyl)ethynyl)pyrrolidin-2-one], the IC50 came out at 1910 nM in assay [1] and 110 nM in assay [2].

Consider `Cc1cc2cnc(-c3cccc(C#C[C@]4(O)CCc5cccnc54)c3)nc2c(N)n1` [Example 63, (R)-7-((3-(8-amino-6-methylpyrido[3,4-d]pyrimidin-2-yl)phenyl)ethynyl)-6,7-dihydro-5H-cyclopenta[b]pyridin-7-ol], for which the results for the IC50 in assay [1] and in assay [2] were 140 nM and 1.4 nM, respectively.

Regarding `Cc1nc(N)c2nc(-c3cccc(C#C[C@@](C)(O)c4nnc(C)o4)c3)ccc2n1` [Example 213, (R)-4-(3-(4-Amino-2-methylpyrido[3,2-d]pyrimidin-6-yl)phenyl)-2-(5-methyl-1,3,4-oxadiazol-2-yl)but-3-yn-2-ol], the figures for the IC50 in assay [1] and in assay [2] were 1080 nM and 18 nM, respectively.

Turning to `Cc1ccc(C#C[C@]2(O)CCN(C)C2=O)cc1-c1ncc2ccnc(N)c2n1` [Example 43, (R)-3-((3-(8-Aminopyrido[3,4-d]pyrimidin-2-yl)-4-methylphenyl)ethynyl)-3-hydroxy-1-methylpyrrolidin-2-one], the results for the 50% inhibitory concentration (IC50) in assay [1] and in assay [2] were 60 nM and 0.9 nM, respectively.

In general, IC50 refers to the midpoint of a concentration-inhibition curve.
